# Results: US20240025907A1, “QUINAZOLINE PAN-KRas INHIBITORS” (Mirati Therapeutics, Inc., priority 2022, published 2024)
# Where two headings read alike, the source gives them in different places.
# Assays:
# KRas^G12C = target: T1, KRas^G12C (Homo sapiens, UniProt P01116, G12C); experiment: KRas TR-FRET tracer displacement binding assay, G12C; settings: 60-minute incubation
# T1 construct: Biotinylated KRas (corresponding to amino acids 1-169, produced at Accelegan Inc.); biotin (biotinylated); purchased Accelegan Inc
# T1 sequence (P01116 1-169 isoform P01116-2 G12C): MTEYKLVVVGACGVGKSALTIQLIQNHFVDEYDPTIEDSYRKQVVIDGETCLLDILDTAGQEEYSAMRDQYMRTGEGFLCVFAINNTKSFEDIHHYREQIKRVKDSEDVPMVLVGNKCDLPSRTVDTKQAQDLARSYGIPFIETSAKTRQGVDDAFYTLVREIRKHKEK
# Method: (§1) KRas^WT, KRas^G12A, KRas^G12C, KRas^G12D, KRas^G12R, KRas^G12S, KRas^G12V, KRas^G13D, or KRas^Q61H was used in the assay.
# (§2) The ability of a compound to bind to KRas was measured using a TR-FRET displacement assay. Biotinylated KRas (corresponding to amino acids 1-169, produced at Accelegan Inc.) was incubated with custom made Cy5 labelled tracer, terbium streptavidin (Cisbio Inc.) and compound (1% DMSO final) in buffer (50 mM HEPES, pH 7.5, 5 mM MgCl2, 0.005% Tween-20 and 1 mM DTT). After a 60-minute incubation at room temperature, the reaction was measured using a BMG LABTECH CLARIO star Plus via TR-FRET.
# KRas^G12S = target: T2, KRas^G12S (Homo sapiens, UniProt P01116, G12S); experiment: KRas TR-FRET tracer displacement binding assay, G12S; settings: 60-minute incubation
# T2 construct: Biotinylated KRas (corresponding to amino acids 1-169, produced at Accelegan Inc.); biotin (biotinylated); purchased Accelegan Inc
# T2 sequence (P01116 1-169 isoform P01116-2 G12S): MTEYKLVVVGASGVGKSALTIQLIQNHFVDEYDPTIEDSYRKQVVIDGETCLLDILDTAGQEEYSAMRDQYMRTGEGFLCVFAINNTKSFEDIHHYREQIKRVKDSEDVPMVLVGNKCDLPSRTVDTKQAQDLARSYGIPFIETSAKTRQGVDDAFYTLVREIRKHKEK
# Method: as §1, §2
# KRas^G12V = target: T3, KRas^G12V (Homo sapiens, UniProt P01116, G12V); experiment: KRas TR-FRET tracer displacement binding assay, G12V; settings: 60-minute incubation
# T3 construct: Biotinylated KRas (corresponding to amino acids 1-169, produced at Accelegan Inc.); biotin (biotinylated); purchased Accelegan Inc
# T3 sequence (P01116 1-169 isoform P01116-2 G12V): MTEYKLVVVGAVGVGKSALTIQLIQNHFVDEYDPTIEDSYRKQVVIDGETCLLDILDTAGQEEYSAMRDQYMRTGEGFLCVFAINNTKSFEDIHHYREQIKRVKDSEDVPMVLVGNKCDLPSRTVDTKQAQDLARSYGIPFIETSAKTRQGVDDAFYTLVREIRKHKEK
# Method: as §1, §2
# KRas^WT = target: T4, KRas^WT (Homo sapiens, UniProt P01116); experiment: KRas TR-FRET tracer displacement binding assay, WT; settings: 60-minute incubation
# T4 construct: Biotinylated KRas (corresponding to amino acids 1-169, produced at Accelegan Inc.); biotin (biotinylated); purchased Accelegan Inc
# T4 sequence (P01116 1-169 isoform P01116-2): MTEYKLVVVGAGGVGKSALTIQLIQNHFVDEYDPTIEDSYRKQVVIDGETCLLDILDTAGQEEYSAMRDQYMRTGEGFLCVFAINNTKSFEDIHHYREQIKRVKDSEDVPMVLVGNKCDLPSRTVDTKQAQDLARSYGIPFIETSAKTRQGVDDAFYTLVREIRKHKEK
# Method: as §1, §2
# KRas^G12D = target: T5, KRas^G12D (Homo sapiens, UniProt P01116, G12D); experiment: KRas TR-FRET tracer displacement binding assay, G12D; settings: 60-minute incubation
# T5 construct: Biotinylated KRas (corresponding to amino acids 1-169, produced at Accelegan Inc.); biotin (biotinylated); purchased Accelegan Inc
# T5 sequence (P01116 1-169 isoform P01116-2 G12D): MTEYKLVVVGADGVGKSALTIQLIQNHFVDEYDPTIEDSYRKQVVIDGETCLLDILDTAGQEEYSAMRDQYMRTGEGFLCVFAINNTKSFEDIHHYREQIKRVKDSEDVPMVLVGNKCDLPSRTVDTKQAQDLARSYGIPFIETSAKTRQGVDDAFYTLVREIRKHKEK
# Method: as §1, §2
# [1] = test system: KRas-mediated Phosphorylation of ERK in A549 cells; experiment: Cisbio HTRF pERK assay, A549 cells; format: cell-based; settings: A549 cells, 3 hrs compound, read-out: Inhibition (HTRF IC50 nM) of KRas-mediated Phosphorylation of ERK, A549
# [2] = test system: KRas-mediated Phosphorylation of ERK in PSN1 cells; experiment: Cisbio HTRF pERK assay, PSN1 cells; format: cell-based; settings: 3 hour compound, read-out: Inhibition (HTRF IC50 nM) of KRas-mediated Phosphorylation of ERK, PSN1
# Method: Inhibition of KRas Phosphorylation of ERK (HTRF) by Exemplary Compounds of Formula (I) • Cisbio HTRF Advanced pERK Assay Catalog #64AERPEH • Cell: MKN1, PSN1 • Procedure: • Day 1: Seed 6,000 cells/well −25 μl/well in 384-well white solid bottom plate; RPM1_10% FBS.
# [3] = test system: KRas-mediated Phosphorylation of ERK in HCT116 cells; experiment: Cisbio HTRF pERK assay, HCT116 cells; format: cell-based; settings: HCT116 cells, 3 hrs compound, read-out: Inhibition (HTRF IC50 nM) of KRas-mediated Phosphorylation of ERK, HCT116
# [4] = test system: KRas-mediated Phosphorylation of ERK in H460 cells; experiment: Cisbio HTRF pERK assay, H460 cells; format: cell-based; settings: H460 cells, 3 hrs compound, read-out: Inhibition (HTRF IC50 nM) of KRas-mediated Phosphorylation of ERK, H460
# [5] = test system: KRas-mediated Phosphorylation of ERK in H358 cells; experiment: Cisbio HTRF pERK assay, H358 cells; format: cell-based; settings: H358 cells, 3 hrs compound, read-out: Inhibition (HTRF IC50 nM) of KRas-mediated Phosphorylation of ERK, H358
# [6] = test system: KRas-mediated Phosphorylation of ERK in H727 cells; experiment: Cisbio HTRF pERK assay, H727 cells; format: cell-based; settings: 3 hrs compound, read-out: Inhibition (HTRF IC50 nM) of KRas-mediated Phosphorylation of ERK, H727
# [7] = test system: KRas-mediated Phosphorylation of ERK in AsPC-1 cells; experiment: Cisbio HTRF pERK assay, AsPC-1 cells; format: cell-based; settings: 3 hrs compound, read-out: Inhibition (HTRF IC50 nM) of KRas-mediated Phosphorylation of ERK, AsPC-1
SMILES,"IC50 ([1]; Homo sapiens, A549, 3 h) [nM]","IC50 ([2]; Homo sapiens, PSN1, 3 h) [nM]","IC50 ([3]; Homo sapiens, HCT-116, 3 h) [nM]","IC50 ([4]; Homo sapiens, NCI-H460, 3 h) [nM]","IC50 ([5]; Homo sapiens, NCI-H358, 3 h) [nM]","IC50 ([6]; Homo sapiens, NCI-H727, 3 h) [nM]","IC50 ([7]; Homo sapiens, ASPC1, 3 h) [nM]",other results
"CC(Oc1nc(N(C)C)c2cc(F)c(-c3ccc(F)c4sc(N)c(C#N)c34)c(F)c2n1)C12CCCN1CCC2 (single isomer, unassigned; isomer 1) [Example 177, 2-amino-4-(4-(dimethylamino)-6,8-difluoro-2-(1-(tetrahydro-1H-pyrrolizin-7a(5H)-yl)ethoxy)quinazolin-7-yl)-7-fluorobenzo[b]thiophene-3-carbonitrile (isomer 1)]",–,–,–,–,–,–,–,IC50 (KRas^G12C): 36 nM; IC50 (KRas^G12S): 42 nM; IC50 (KRas^G12V): 18 nM; IC50 (KRas^WT): 40 nM; IC50 (KRas^G12D): 107 nM
"CC(Oc1nc(N(C)C)c2cc(F)c(-c3ccc(F)c4sc(N)c(C#N)c34)c(F)c2n1)C12CCCN1CCC2 (single isomer, unassigned; isomer 2) [Example 178, 2-amino-4-(4-(dimethylamino)-6,8-difluoro-2-(1-(tetrahydro-1H-pyrrolizin-7a(5H)-yl)ethoxy)quinazolin-7-yl)-7-fluorobenzo[b]thiophene-3-carbonitrile (isomer 2)]",–,–,–,–,–,–,–,IC50 (KRas^G12C): 20 nM; IC50 (KRas^G12S): 28 nM; IC50 (KRas^G12V): 10 nM; IC50 (KRas^WT): 17 nM; IC50 (KRas^G12D): 92 nM
"CN(C)C(=O)n1cc2c(n1)CCCN(c1nc(OC[C@@]34CCCN3C[C@H](F)C4)nc3c(F)c(-c4ccc(F)c5sc(N)c(C#N)c45)c(Cl)cc13)C2 [Example 185, 5-((R)-7-(2-amino-3-cyano-7-fluorobenzo[b]thiophen-4-yl)-6-chloro-8-fluoro-2-(((2R,7aS)-2-fluorotetrahydro-1H-pyrrolizin-7a(5H)-yl)methoxy)quinazolin-4-yl)-N,N-dimethyl-5,6,7,8-tetrahydropyrazolo[4,3-c]azepine-2(4H)-carboxamide]",–,–,–,–,–,–,–,IC50 [1]: 12 nM; IC50 [2]: 1800 nM; IC50 [3]: 17 nM; IC50 [4]: 9 nM; IC50 [5]: 1 nM; IC50 [6]: 3 nM; IC50 [7]: 2 nM
"N#Cc1c(N)sc2c(F)ccc(-c3c(Cl)cc4c(N5CCCn6nc(N)cc6C5)nc(OC[C@@]56CCCN5C[C@H](F)C6)nc4c3F)c12 [Example 187, 2-amino-4-(4-(2-amino-7,8-dihydro-4H-pyrazolo[1,5-a][1,4]diazepin-5(6H)-yl)-6-chloro-8-fluoro-2-(((2R,7aS)-2-fluorotetrahydro-1H-pyrrolizin-7a(5H)-yl)methoxy)quinazolin-7-yl)-7-fluorobenzo[b]thiophene-3-carbonitrile]",106,1060,176,78,12,148,41,–
"N#Cc1c(N)sc2c(F)ccc(-c3c(Cl)cc4c(N5C=C(CCO)CCCC5)nc(OC[C@@]56CCCN5C[C@H](F)C6)nc4c3F)c12 [Example 190, 2-amino-4-(6-chloro-8-fluoro-2-(((2R,7aS)-2-fluorotetrahydro-1H-pyrrolizin-7a(5H)-yl)methoxy)-4-(6-(2-hydroxyethyl)-2,3,4,5-tetrahydro-1H-azepin-1-yl)quinazolin-7-yl)-7-fluorobenzo[b]thiophene-3-carbonitrile]",525,5570,596,347,330,870,627,–
"N#Cc1c(N)sc2c(F)ccc(-c3c(Cl)cc4c(N5CCCCC(=O)C5)nc(OC[C@@]56CCCN5C[C@H](F)C6)nc4c3F)c12 [Example 191, 2-amino-4-(6-chloro-8-fluoro-2-(((2R,7aS)-2-fluorotetrahydro-1H-pyrrolizin-7a(5H)-yl)methoxy)-4-(3-oxoazepan-1-yl)quinazolin-7-yl)-7-fluorobenzo[b]thiophene-3-carbonitrile]",11,798,11,10,2,12,8,–
"N#Cc1c(N)sc2c(F)ccc(-c3c(Cl)cc4c(NCc5cn[nH]c5)nc(OC[C@@]56CCCN5C[C@H](F)C6)nc4c3F)c12 [Example 199, 4-(4-(((1H-pyrazol-4-yl)methyl)amino)-6-chloro-8-fluoro-2-(((2R,7aS)-2-fluorotetrahydro-1H-pyrrolizin-7a(5H)-yl)methoxy)quinazolin-7-yl)-2-amino-7-fluorobenzo[b]thiophene-3-carbonitrile]",1180,3860,889,462,232,4090,4200,–
"CC1CN(C)CCCN1c1nc(N(C)C)c2cc(Cl)c(-c3ccc(F)c4sc(N)c(C#N)c34)c(F)c2n1 (centres unmarked) [Example 217, 2-amino-4-(6-chloro-2-(2,4-dimethyl-1,4-diazepan-1-yl)-4-(dimethylamino)-8-fluoroquinazolin-7-yl)-7-fluorobenzo[b]thiophene-3-carbonitrile]",–,–,–,–,–,–,–,IC50 (KRas^G12C): 184 nM; IC50 (KRas^G12S): 275 nM; IC50 (KRas^G12V): 75 nM; IC50 (KRas^WT): 251 nM; IC50 (KRas^G12D): 959 nM

# Further lines, with some results ahead:
"IC50 ([1]; Homo sapiens, A549, 3 h) [nM]","IC50 ([2]; Homo sapiens, PSN1, 3 h) [nM]","IC50 ([3]; Homo sapiens, HCT-116, 3 h) [nM]","IC50 ([4]; Homo sapiens, NCI-H460, 3 h) [nM]","IC50 ([5]; Homo sapiens, NCI-H358, 3 h) [nM]","IC50 ([6]; Homo sapiens, NCI-H727, 3 h) [nM]","IC50 ([7]; Homo sapiens, ASPC1, 3 h) [nM]",SMILES,other results
307,4790,661,306,82,226,501,"CN(c1nc(OC[C@@]23CCCN2C[C@H](F)C3)nc2c(F)c(-c3ccc(F)c4sc(N)c(C#N)c34)c(Cl)cc12)C1CC1 [Example 203, 2-amino-4-(6-chloro-4-(cyclopropyl(methyl)amino)-8-fluoro-2-(((2R,7aS)-2-fluorotetrahydro-1H-pyrrolizin-7a(5H)-yl)methoxy)quinazolin-7-yl)-7-fluorobenzo[b]thiophene-3-carbonitrile]",–
574,7120,985,690,71,554,1740,"N#Cc1c(N)sc2c(F)ccc(-c3c(Cl)cc4c(NCCO)nc(OC[C@@]56CCCN5C[C@H](F)C6)nc4c3F)c12 [Example 205, 2-amino-4-(6-chloro-8-fluoro-2-(((2R,7aS)-2-fluorotetrahydro-1H-pyrrolizin-7a(5H)-yl)methoxy)-4-((2-hydroxyethyl)amino)quinazolin-7-yl)-7-fluorobenzo[b]thiophene-3-carbonitrile]",–
244,4890,367,173,60,55,246,"N#Cc1c(N)sc2c(F)ccc(-c3c(Cl)cc4c(N5CCC5)nc(OC[C@@]56CCCN5C[C@H](F)C6)nc4c3F)c12 [Example 206, 2-amino-4-(4-(azetidin-1-yl)-6-chloro-8-fluoro-2-(((2R,7aS)-2-fluorotetrahydro-1H-pyrrolizin-7a(5H)-yl)methoxy)quinazolin-7-yl)-7-fluorobenzo[b]thiophene-3-carbonitrile]",–
